Series [1] can be described thus: Skin permeation of CHG with EO and IPA, Franz diffusion cells, receptor compartment by HPLC. As to conditions: 24 h permeation study, skin from two donors; LOD 0.0157 μg/mL.
Description: The full thickness human skin was frozen on the day of excision and stored at −70° C. until required.
Skin permeation studies were performed with vertical Franz diffusion cells. The receptor compartment was filled with 29 mL of PBS and maintained at 37° C. by a circulating water jacket and agitated by stirring with a magnetic bar. Skin samples were thawed in PBS at room temperature, dried with an absorbent towel and mounted onto Franz diffusion cells with the stratum corneum (SC) uppermost facing the donor compartment. The surface area exposed to the test compound was 3.14 cm2 (2 cm in diameter). All entrapped air was removed between the skin and receptor fluid and the skin was left to equilibrate for 30 min to reach the skin surface temperature of 32° C.
Twenty percent (w/v) aqueous CHG was diluted with distilled water, IPA and EO to obtain the final concentrations of 2% (w/v) CHG in 70% (v/v) IPA and 2% (w/v) CHG with 5%, 10%, 20% and 50% (v/v) EO. Tween 80 [0.1% (v/v)] was added to the test solutions to enhance EO solubility in the vehicle. One millilitre of test solution was spread over the skin surface in the donor compartment and the compartment was sealed with a moisture resistant film to prevent evaporation. […] All samples were filtered through a 0.45 μm nylon filter (Kinesis, UK) and analysed by HPLC. […]
Series [2] is described as follows: Skin permeation study CHG + eucalyptus oil, Franz diffusion cells, receptor fluid by HPLC. It counts as in vitro ADME. The settings on record: 24 hour skin permeation, full thickness human skin, Franz cell. As to the method: Prior to the study full ethical committee approval and written consent from patients donating the tissue was obtained. […] Vertical diffusion cells (Franz diffusion cells), with an average diffusion surface area of 1.65 cm^2, were used for skin permeation studies. Phosphate buffered saline (PBS) was used as a receptor fluid, and left overnight in a receptor compartment (approximately volume 29 mls) with circulating water jacket set at 37° C. On the day of investigation the excised skin was thawed in PBS and cut into size to fit Franz diffusion cells (2.9 cm circle across). The skin samples were mounted into Franz diffusion cells and left for 1 hour in the diffusion cells to equilibrate with the receptor fluid prior to commencing the study. […] One millilitre of CHG solution of CHG/eucalyptus oil suspension was aliquoted in triplicate on the surface of the excised human skin on the donor compartment in Franz diffusion cells. The temperature was maintained constant by a circulating water jacket set at 37° C. and the receptor fluid was agitated continuously by magnetic stirrer bar. […] The samples were filtered and analysed by HPLC. Chlorhexidine digluconate was analysed quantitatively by HPLC. […] The samples were filtered and analysed with HPLC (Agilent 1100) with ODS-2 Hypersil column (5μ particle size) (Thermo Electron Corporation, UK) with a flow rate of 1.2 mls/min, detector wavelength 254 nm.

The subject of series [3] is S. epidermidis RP62A (planktonic cells, suspension). Put plainly: MIC/MBC by microbroth dilution assay, S. epidermidis in suspension. It counts as cell-based. As to conditions: Staphylococcus epidermidis, read-out: Minimum inhibitory concentration (MIC), planktonic cells.
Description: Test inocula for the suspension assay were prepared by suspending 10 colonies of S. epidermidis RP62A from an overnight culture on MHA into sterile PBS. The bacterial concentration was adjusted to 1×10*8 cfu/mL by diluting the culture with sterile PBS and measuring the OD at 570 nm (calibration curve for S. epidermidis cfu against OD at 570 nm were performed prior to the study, data not shown). The suspension was further diluted with MHB to obtain inocula containing 1×10*7 cfu/mL for synergy assays or 1×10*6 cfu/ml for testing antimicrobial activity of CHG and oils alone in suspension.
(§1) Aqueous chlorhexidine digluconate (CHG), tea tree oil (TTO), eucalyptus oil (EO) and thymol (all from Sigma-Aldrich) were diluted with MHB to obtain stock solution of 512 mg/mL for essential oils and 512 μg/mL for CHG. Five percent (v/v) dimethylsulphoxide (DMSO) (Sigma-Aldrich) was added to the stocks of essential oils to enhance their solubility of the oils in suspension.
Minimum inhibitory concentration (MIC) and minimum bacterial concentration (MBC) of aqueous CHG, TTO, EO and thymol were performed by microbroth dilution assay (NCCLS, 1997). […] Minimum bactericidal concentrations were determined by removing the suspension from the clear wells into MHA, spread with a sterile spreader and incubating the plates in air at 37° C. for 18-20 hours. […]
Series [4] concerns S. epidermidis RP62A biofilm. In words: Antimicrobial activity against S. epidermidis biofilm by ATP bioluminescence. The series is classed as cell-based, Staphylococcus epidermidis. The settings on record: for MBC/biofilm eradicating concentration / Minimum inhibitory concentration (MIC), bacteria growing in biofilm: S. epidermidis RP62A biofilm.
Description: S. epidermidis RP62A was used for its ability to produce a biofilm (Sadovskaya, et al., 2005). Bacteria were stored on beads (MicroBank, Pro-Lab Diagnostics, Cheshire, UK) at −70° C. until required. The ability of the strain to produce slime was confirmed by culturing the bacteria on Congo Red agar (Freeman, et al., 1989). For producing the microbial biofilms, the strains were first inoculated onto Muller-Hinton agar (MHA) (Oxoid, Basingstoke, UK) and incubated in air at 37° C. for 18-20 hours. Ten colonies from the culture plate were suspended into sterile phosphate buffered saline (PBS, Sigma, Dorset, UK). The bacterial concentration was adjusted to 1×10*8 cfu/mL by diluting the culture with sterile PBS and measuring the OD at 570 nm (calibration curve for S. epidermidis cfu against OD at 570 nm were performed prior to the study, data not shown). The suspension was further diluted with Muller-Hinton broth (MHB) supplemented with 2% (w/v) glucose (Fisher Scientific, Leicester, UK) to obtain inocula containing 1×10*5 cfu/mL. Two hundred μL of the bacterial suspension were aliquoted into wells of white walled, clear bottom, tissue culture treated 96-well microtitre plate (Corning Incorporated, NY, USA). The wells in the last column of the plate served as a control, and contained 200 μL of MHB supplemented with 2% (w/v) glucose only. Microtitre plates were incubated in air at 37° C. for 48 hours.
as §1
Prior to antimicrobial susceptibility studies, a standard curve for relative light units (RLU) versus bacterial cfu/mL was performed. S. epidermidis was grown with MHB supplemented with 2% (w/v) glucose in a 96-well microtitre plate as described previously to obtain bacterial biofilms. The wells of the microtitre plate with established bacterial biofilms were washed three times with sterile PBS and biofilms were removed from the wells by using “a scrape and wash method” (Adams, 2006). In brief, each well was filled with 200 μL of sterile PBS and, with a sterile pipette tip, the wall of each well was scraped approximately 10 times and the bottom scraped horizontally, vertically and cross-wise in each direction 10 times. The suspension was removed and collected into a sterile Eppendorf tube and the procedure repeated a further 4 times to obtain a final volume of 1000 μL per tube. The procedure was performed on three wells separately. The suspensions were mixed by vortexing and serial dilutions were performed in sterile PBS. 100 μL of the neat suspension and 10^−1 to 10^−5 dilutions were aliquoted onto wells of a white-walled, clear bottom microtitre plate. 100 microlitres of bactolyse were added into each well. The plate was then floated on a water bath sonicator and the plate was sonicated at 50 Hz for 30 minutes to lyse the cells and release the bacterial ATP. Twenty μL of luciferase where added into each well and luminescence read by a luminometer. The bacterial cfu in each suspension and dilution were established by the drop count method. The results were expressed as cfu against RLU.
Microtitre plates containing S. epidermidis RP62A biofilm were washed once with sterile PBS to remove any unbound bacteria. Antimicrobial agents were diluted with MHB to obtain CHG concentrations of 128 μg/mL to 0.25 μg/mL and essential oil concentrations of 256 mg/mL to 0.5 mg/mL. Two hundred and fifty microlitres of the antimicrobial compound were added in the wells in triplicate. Columns 11 and 12 served as controls with biofilm with saline alone and clear wells with MHB alone without bacterial biofilm.
Series [5] in a line: CHG penetration profile studies with EO and IPA (CHG extracted from skin sections). The series is classed as in vitro ADME, human. As for the experimental part: Following exposure, the skin samples were removed, washed with PBS and dried with an absorbent towel. The skin samples were immediately sprayed with a cryospray (Bright Instruments) and frozen at -20° C. Punch biopsies (7 mm in diameter) were cut from each frozen sample in triplicate and placed onto a cork disc in embedding compound (Bright Instruments, Cambs, UK), The frozen samples were sectioned horizontally with a microtome (Bright Instruments) into 20 μm sections (from the surface to a depth of 600 μm) and 30 μm sections (from depths of 600 to 1500 μm). Each section was placed into an Eppendorf tube and the total weight of each skin sample determined. Chlorhexidine was extracted from the skin by aliquoting 1 mL of mobile phase solution (75% methanol, 25% distilled water, 0.1% sodium heptane sulphonate, 0.1% diethylamine, pH 4) into skin samples and incubated in water bath at 60° C. for 1 h. The samples were mixed by vortexing and filtered prior to analysis by HPLC. The results were calculated as μg of CHG per mg of skin. Control skin (skin without treatment) was analysed parallel to the test samples. The assay was performed in triplicate. The data obtained were analysed by a student t-test using […] software (Graph pad software version 3.06) with a p<0.05 level of significance.

Structures are written as SMILES. ≈ marks a conversion by molar mass, not a printed value. Where two headings read alike, the source gives them in different places.

Turning to `[H]/N=C(\N/C(=N/[H])NCCCCCCNC(=N)NC(=N)Nc1ccc(Cl)cc1)Nc1ccc(Cl)cc1` [CHG, chlorhexidine digluconate], the “Chlorhexidine in the receptor compartment” value in series [1] was “not detected”. Further, the “Levels of CHG in the receptor fluid” value in series [2] was “did not show detectable levels”. For the same compound, the MIC in series [3] (agent alone) was found to be 2 µg/mL. Also, the MBC/biofilm eradicating concentration in series [4] is 32 µg/mL. Also, in series [4] (agent alone), the “Minimum inhibitory concentration (MIC), bacteria growing in biofilm” value amounted to 8 µg/mL. In series [4] (biofilm vs planktonic), the “MIC higher against bacteria growing in biofilm compared to planktonic cells” value is listed as 2 fold. Further, in series [5] (2 min exposure, 300 to 1500 μm depths), the “Mean concentration of CHG (and SEM) within the tissues” value was found to be 0.0048 μg/mg tissue. Besides, the “Mean CHG concentration (and SEM)” value in series [5] (30 min exposure, depths of 300 μm to 1500 μm) is listed as 0.0021 (±0.0004) μg/mg tissue. For the same compound, in series [5] (24 h exposure, 300 to 1500 μm depths), the “CHG concentration extracted from the deeper layers of the skin” value is 0.581 (±0.0466) μg per mg tissue. Also, in series [5] (24 h exposure, top 100 μm), the “CHG concentration extracted from the top 100 μm layer” value is recorded as 7.880 μg per mg tissue.
As for `Cc1ccc(C(C)C)c(O)c1` [Thymol, thymol], the MIC in series [3] (oil alone) came to 4000 µg/mL (≈ 26.6 mM). Moreover, in series [4], the MBC/biofilm eradicating concentration stood at 2000 µg/mL (≈ 13.3 mM). Also, the “Minimum inhibitory concentration (MIC), bacteria growing in biofilm” value in series [4] (oil alone) turned out to be 1000 µg/mL (≈ 6.66 mM). Also, in series [4] (biofilm vs planktonic), the “MIC lower against biofilms compared to planktonic cells” value came to 2 fold.

For the origin of these results see patent US10946057B2, “Antiseptics” (INSIGHT HEALTH LIMITED, priority 2007, dated 2021).
